According to publication PMC6053504, “Inhibitory Role of the Mud Crab Short Neuropeptide F in Vitellogenesis and Oocyte Maturation via Autocrine/Paracrine Signaling” (Frontiers in Endocrinology, 2018):
Where no end group is shown, it is not given here.

Key:
[1] = test system: denuded oocytes; set-up: method as in 2 sources, one per row (each row's own in cited_ref): ref 76 = [76]; PMID 20382141; doi:10.1016/j.ydbio.2010.03.027; 76. Pang Y Thomas P . Role of G protein-coupled estrogen receptor 1, GPER, in inhibition of oocyte maturation by endogenous estrogens in zebrafish . Dev Biol. ( 2010 ) 342 : 194 – 206 . 10.1016/j.ydbi ||| ref 77 = [77]; PMID 21636738; doi:10.1095/biolreprod.111.091884; 77. Zhou R Tsang AH Lau SW Ge W . Pituitary adenylate cyclase-activating polypeptide (PACAP) and its receptors in the zebrafish ovary: evidence for potentially dual roles of pacap in controlling final; conditions: zebrafish, via GPER; cited from earlier work
[2] = target: T1, Sp-sNPFR (Scylla paramamosain, UniProt A0A345ZFF5); assay: Ligand-receptor activation of signaling, dual-luciferase (pCRE-luc) reporter in HEK293T; assay type: cell-based; conditions: HEK293T transiently co-transfected with Sp-sNPFR/pEGFP-N1, pCRE-luc, pRL-TK; incubation 6 h; dual-luciferase read-out (Figure 3B legend: concentration of cAMP determined); nonlinear curve fitting; mean ± SD, three biological replicates
T1 sequence (A0A345ZFF5 1-458): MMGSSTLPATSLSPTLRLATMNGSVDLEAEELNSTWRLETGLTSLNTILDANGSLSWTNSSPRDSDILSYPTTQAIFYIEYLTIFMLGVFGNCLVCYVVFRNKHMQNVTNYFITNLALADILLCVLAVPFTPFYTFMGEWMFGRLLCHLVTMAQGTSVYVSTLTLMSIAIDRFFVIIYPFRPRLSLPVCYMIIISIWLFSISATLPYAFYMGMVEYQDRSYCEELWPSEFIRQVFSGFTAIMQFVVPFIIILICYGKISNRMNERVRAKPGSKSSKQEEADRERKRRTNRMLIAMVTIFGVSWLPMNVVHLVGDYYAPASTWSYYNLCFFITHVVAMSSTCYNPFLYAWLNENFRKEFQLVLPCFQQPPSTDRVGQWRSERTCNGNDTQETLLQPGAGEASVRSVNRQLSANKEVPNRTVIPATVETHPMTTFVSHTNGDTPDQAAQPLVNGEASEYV
Method: Human embryonic kidney cell lines (HEK293T) were maintained in high glucose DMEM (Hyclone) supplemented with 10% fetal bovine serum (Gibco), 100 U/mL penicillin and 100 μg/mL streptomycin (Hyclone) at 37°C in a humidified incubator (Thermo) containing 5% CO2. Cells were seeded overnight in 6-well plates and transiently co-transfected with 1 μg of the Sp-sNPFR/pEGFP-N1 plasmid, 0.8 μg of the reporter gene pCRE-luc, and 0.4 μg of internal control gene pRL-TK using 5 μL Lipofectamine 2000 (Invitrogen) reagent following the manufacturer's protocols. Empty pEGFP-N1 plasmid was used for mock transfection.
HEK293T transiently co-transfected with Sp-sNPFR/pEGFP-N1 and dual-luciferase reporter system vectors were grown to 90% confluency in a 24-well plate. Cells were first treated with synthetic Sp-sNPF peptide mixture and the mixture containing 9 synthetic FLPs (GL Biochem, Table 2) at 1 μM each. Further, various concentrations of individual peptides were used to record dose-dependent curves. After incubation for 6 h, ligand-induced changes in luciferase activity were measured by GloMax® 20/20 Luminometer (Promega) with Dual-Luciferase® Reporter Assay System Kit (Promega).
All values are expressed as mean ± SD. Multiple sequence alignment of sNPFR sequences was performed with ClustalX and embellished by LaTEX TexShade ([57]). Data of ligand-receptor assays were analyzed using nonlinear curve fitting (GraphPad Prism 6.0) to obtain activation curves and EC50 values. The mRNA levels of Sp-Vg and Sp-VgR gene were normalized against the internal control β-actin, and the relative expression was calculated using the 2^−ΔΔCt method. Statistical significance was determined using one-way ANOVA followed by Duncan's multiple range tests. All statistical analyses were performed using IBM SPSS Statistics 20.0. Pictures were drawn by GraphPad Prism 6.0 and modified with Adobe Photoshop CS5.

Compound: C[C@]12CC[C@@H]3c4ccc(O)cc4CC[C@H]3[C@@H]1CC[C@@H]2O [E2, Estradiol]
- inhibition of spontaneous oocyte maturation [1]: partly inhibited the spontaneous maturation of the denuded oocytes

Compound: APPSMRLRF-NH2 [Sp-sNPF1]
- EC50 [2]: 1.2 µM

Compound: KDARTPALRLRF-NH2 [Sp-sNPF3]
- EC50 [2]: 8.5 µM

Compound: SMPTLRLRF-NH2 [Sp-sNPF2]
- EC50 [2]: 3.8 µM
